{"source": "a melting point compilation (Tetko et al.; mined from patent text by program, amines drawn as free bases though some values may be those of a salt)"}
{"units": {"melting point": "°C"}}
{"compound": "CC(=O)Nc1nc(CCc2ccc(NC(=N)N)cc2)c(C(=O)N2CCN(C(C)=O)CC2)s1", "melting point": "206 to 208"}
{"compound": "C[N+](C)([O-])CC#CC1=Cc2ccccc2Sc2ccc(Cl)cc21", "melting point": "68 to 69"}
{"compound": "CN1CC(N2CCc3ccccc3C2)ON=C1CC(c1ccccc1)c1ccccc1", "note": "(stereo not given)", "melting point": 163}
{"compound": "CCOC(=O)c1ccc(OC2CCN(C(=O)OC(C)(C)C)CC2)cc1", "melting point": "76 to 78"}
{"compound": "O=C1c2ccccc2C(=O)N1OCc1ccco1", "melting point": 145}
{"compound": "CC(C)OCCNC(=O)c1n[nH]cc1NC(=O)c1ccccn1", "melting point": "163 to 164"}
{"compound": "COc1ccc(N)c(C(=O)Cc2nnnn2C)c1", "melting point": "170 to 172"}
{"compound": "CC(NC1=NS(=O)(=O)c2cc(Br)ccc2N1)C(C)(C)C", "note": "(stereo not given)", "melting point": "> 220"}
{"compound": "O=C(CCCCl)c1ccc2oc3ccc(C(=O)CCCCl)cc3c2c1", "melting point": "102 to 104"}
{"compound": "Cc1nc(NCC2CC2)c2nnn(-c3ccc(C(C)C)cc3Br)c2n1", "melting point": "166 to 167"}
{"compound": "Cc1ccc(S(=O)(=O)NC2(C)c3ccccc3C=Cc3ccccc32)cc1", "melting point": "175 to 178"}
{"compound": "COc1ccc(CCNC(=O)NO)cc1OC", "melting point": "109 to 111"}
{"compound": "COC(=O)C(O)(c1ccc(C)cc1)c1ccc(C)cc1", "melting point": "83 to 84"}
{"compound": "Cc1c(C(=O)O)cccc1C(=O)c1ccc(Cl)cc1", "melting point": 205}
{"compound": "COc1cc(OC)c2c(C)c(CCN3CCN(c4ccccc4)CC3)c(=O)oc2c1", "melting point": "112 to 114"}
{"compound": "CCCCCc1c(C(C)C)nc(C(C)C)c(C(C)O)c1-c1ccc(F)cc1", "note": "(stereo not given)", "melting point": 83}
{"compound": "CCCc1ccc(-c2ccc(CCc3ccc(Cl)c(F)c3)cc2)cc1", "melting point": 63.6}
{"compound": "COC(=O)c1cc(N)c(NS(C)(=O)=O)c(CO)c1", "melting point": "150 to 155"}
{"compound": "OC(CN1CCN(c2ccccn2)CC1)(Cn1cncn1)c1ccc(Cl)cc1Cl", "note": "(stereo not given)", "melting point": "116 to 118"}
{"compound": "COc1ccc(C(=O)c2ccc3c(c2)CC(C(=O)O)C3)cc1", "note": "(stereo not given)", "melting point": "149 to 151"}
{"compound": "CCN1C(=O)c2cccnc2N(CC)c2ncccc21", "melting point": "102 to 103"}
{"compound": "CCCCCCCCCC(=O)OCC#Cc1ncn2c1CN(C)C(=O)c1c(Cl)cccc1-2", "melting point": "70 to 72"}
{"compound": "CCc1cn(C2CC(OC(C)=O)C(CNC(=O)Cc3ccccc3NC(C)=O)O2)c(=O)[nH]c1=O", "note": "(stereo not given)", "melting point": "143 to 145"}
{"compound": "COC1(C)CC(NC(=O)C(F)(F)F)C(O)(NC(=O)C(F)(F)F)C(C)O1", "note": "(stereo not given)", "melting point": "165 to 166"}
{"compound": "NCCCCCCCCCCCCCCCCCCCCCC(=O)O", "melting point": "166 to 168"}
{"compound": "CCCCc1c(C(=O)N(C)Cc2ccc3c(Br)c(O)ccc3c2)oc2ccccc12", "melting point": "53 to 56"}
{"compound": "Cn1cncc1-c1cc(C=NN(CCC(C)(C)O)C(N)=S)nc(NC2CCN(S(C)(=O)=O)CC2)n1", "melting point": "204 to 206"}
{"compound": "CCOC(=O)c1c(N2CCN(C(=O)c3cccs3)CC2)c2cccnc2n(Cc2ccc(F)cc2)c1=O", "melting point": 196}
{"compound": "COc1ccc2ccc(N3C(=O)c4ccccc4C3OCc3cccnc3)nc2n1", "note": "(stereo not given)", "melting point": 175}
{"compound": "CCOC(=O)C1=Cc2cc(F)c(Cl)cc2N(Cc2ccccc2)C1", "melting point": "211 to 212"}
{"compound": "O=C1COC(=O)N1C(c1ccccc1)(c1ccccc1)c1ccccc1", "melting point": "216 to 218"}
{"compound": "O=c1c(Cl)c(OCc2ccc(F)cc2F)ccn1Cc1ccc2[nH]ccc2c1", "melting point": "152 to 153"}
{"compound": "CCOC(=O)c1[nH]c(C)c(C(C)(C)C)c1C", "melting point": "108 to 110"}
{"compound": "O=C1C(=Cc2ccc(Cl)cc2)C(c2ccc(Cl)cc2)Oc2ccc(O)cc21", "note": "(stereo not given)", "melting point": "228 to 230"}
{"compound": "CCN1CCN(CCCC#Cc2cn(Cc3ncc(C)c(OC)c3C)c3nc(N)nc(Cl)c23)CC1", "melting point": "142 to 144"}
{"compound": "COCCOC(=O)C1=C(C)NC(C)=C(C(=O)OC(C)C)C1c1ccccc1F", "note": "(stereo not given)", "melting point": "99 to 100"}
{"compound": "Cc1cccc(-c2c3c(cc4ccc5c(c24)OCO5)C(=O)NC3)c1", "melting point": "244 to 246"}
{"compound": "C[C@H]1[C@H](c2ccccc2)OC(c2cc(Br)cc3c2OCC3)N1C", "note": "(stereo not given in full)", "melting point": "83.5 to 85.5"}
{"compound": "C[C@H](OC(=O)CCC(=O)O[C@@H](C)C(=O)O)C(=O)O", "melting point": "59 to 61"}
{"compound": "CCOC(=O)C1CCC2(C)C(=CC(=O)C3C4CCC(=O)C4(C)CCC32)C1", "note": "(stereo not given)", "melting point": "187 to 188"}
{"compound": "CC(=O)c1c(C)[nH]c(-c2cccc(C)c2)c1N", "melting point": "195 to 197"}
{"compound": "Nc1cc(Sc2ccc3c(C(=O)Nc4cccc(OC(F)(F)F)c4)cccc3c2)ncn1", "melting point": "197 to 199"}
{"compound": "COC(=O)c1sc(C)c2[nH]c(C(F)(F)C(F)(F)F)nc12", "melting point": "156 to 157"}
{"compound": "COc1cc2c(cc1Nc1ncc(Cl)c(Nc3ccc(N(C)C)cc3OC)n1)CCN(CC(=O)N(C)C)CC2", "melting point": "69 to 83"}
{"compound": "O=c1cc(Cc2c[nH]c3ccccc23)[nH]n1C1CCCCC1", "melting point": "192 to 194"}
{"compound": "Cc1oc(-c2ccccc2)nc1COc1ccc(CON=C(CC(=O)O)c2ccccc2)cc1", "melting point": "107 to 108"}
{"compound": "CNc1nc(-c2cccc(NC(=O)c3ccccn3)c2)c2cc(OC)c(OC)cc2n1", "melting point": "175 to 177"}
{"compound": "CN1C[C@H]2c3ccccc3[C@H](c3ccccc3)CN2C(=O)C1=O", "note": "(relative stereo)", "melting point": "193 to 194"}
{"compound": "CCOc1cc(CCCC2OC(=O)NC2=O)ccc1OCc1coc(-c2ccccc2)n1", "note": "(stereo not given)", "melting point": "119 to 120"}
{"compound": "O=C(NCc1ccc(Cl)cc1)c1cnc2cccc(O)c2c1O", "melting point": "235 to 238"}
{"compound": "O=C(Cc1cccc(Cl)c1)c1ccn(S(=O)(=O)c2ccccc2)c1", "melting point": "106 to 108"}
{"compound": "CC(C)N(Cc1c(-c2ccccc2)sc(N2C(=O)c3ccccc3C2=O)c1C(=O)c1ccc(Cl)cc1)C(C)C", "melting point": "168 to 170"}
{"compound": "CC1(C)CCC(N2c3ccccc3Oc3ccc(C(F)(F)F)cc32)=N1", "melting point": "64 to 67"}
{"compound": "CCCN(c1ncnc2[nH]cnc12)n1cccc1", "melting point": "181 to 183"}
{"compound": "CN1CC[C@@H](c2c(O)cc(O)c3c(=O)cc(-c4ccccc4F)oc23)[C@@H]1CO", "melting point": "206 to 208"}
{"compound": "COc1cc(C=O)c(C)c(OC)c1", "melting point": "63.4 to 65.1"}
{"compound": "CCc1cnc2c(NC(=O)c3c(Cl)cccc3Cl)cccc2c1CCl", "melting point": "193 to 194"}
{"compound": "CC(C(=O)OCc1ccccc1)c1cccc(NC(=O)NCC(=O)N2[C@@H](c3ccccc3)CC[C@H]2C(=O)OC(C)(C)C)c1", "note": "(stereo not given in full)", "melting point": 75}
{"compound": "CC(C)(C)C(=O)c1c[nH]c2ncc(C3CC3)nc12", "melting point": "266 to 268"}
{"compound": "COc1ccc(C(=O)Nc2ccc(C3(CNC(=O)C(C)(C)C)CCCC3)cc2)cc1OC", "melting point": "165 to 167"}
{"compound": "Nc1noc(-c2ccc(C(F)(F)F)cc2)c1Cl", "melting point": "115 to 118"}
{"compound": "COC(=O)P(=O)(OC)OC", "melting point": 150}
{"compound": "COc1ccc(C(O)(C(F)(F)F)C(F)(F)F)cc1C=CC(=O)O", "melting point": "184 to 186"}
{"compound": "COc1c(/C=C/c2ccc(C(=O)O)cc2)c(C)cc2c1C(C)(C)CCC2(C)C", "melting point": "222 to 223"}
{"compound": "N[C@@H](Cc1ccccc1)C(c1ccccc1)c1ccccc1", "melting point": "71 to 72"}
{"compound": "O=C(Cn1ccnc1)c1cccc2ccccc12", "melting point": "114 to 117"}
{"compound": "CCOC(=O)Nc1ccc(OC)c(OC)c1", "melting point": "75 to 78"}
{"compound": "O=C(CC1NCCCC1O)Cn1cnc2cc(Br)c(Cl)cc2c1=O", "note": "(stereo not given)", "melting point": 205}
{"compound": "Fc1ccc(Nc2nnc(Cc3ccncc3)c3ccccc23)cc1Cl", "melting point": "185 to 187"}
{"compound": "O=S(=O)(c1ccccc1)N1CCN(CC(O)CCl)CC1", "note": "(stereo not given)", "melting point": "136 to 137"}
{"compound": "Cc1c(-c2ccccc2)oc2c(C(=O)NCC(C)N3CCCCC3)cccc2c1=O", "note": "(stereo not given)", "melting point": "106 to 108"}
{"compound": "COc1cc(COc2nn(-c3ccccc3)cc2CC#N)ccc1OCc1nc(-c2ccco2)oc1C", "melting point": "153 to 154"}
{"compound": "COC(=O)c1ccccc1NC(=O)N(C)CCO", "melting point": 90}
{"compound": "N=C(N)c1ccc2cc(OC(=O)CC3CCCCC3)ccc2c1", "melting point": "203 to 205"}
{"compound": "O=C(O)CN1CCNCC1", "melting point": "130 to 132"}
{"compound": "COC(=O)c1ccc2nnc(C(=O)NCc3ccc(Cl)cc3)c(O)c2c1", "melting point": "308 to 310"}
{"compound": "N#CN1CCN(c2nn(S(=O)(=O)c3ccccc3)c3cc(Cl)ccc23)CC1", "melting point": "179 to 181"}
{"compound": "O=C(Nc1ccccc1)O[C@@H]1CN=C(c2cccs2)O[C@H]1c1ccccc1", "note": "(racemic)", "melting point": 98}
{"compound": "COc1ccccc1[C@@]1(O)C[C@@H](C)C[C@@H]2CN(Cc3ccccc3)C[C@@H]21", "note": "(racemic)", "melting point": 120}
{"compound": "O=C1c2c(Cl)cccc2-n2cnc(-c3noc(CN(C4CCCCC4)C4CCCCC4)n3)c2[C@@H]2CCN12", "melting point": "155 to 185"}
{"compound": "Cc1cc(O)n(C)c(=O)c1C#N", "melting point": 285}
{"compound": "CC(C=O)(CCc1c[nH]c2ccccc12)NC(=O)OC1C2CC3CC(C2)CC1C3", "note": "(stereo not given)", "melting point": "178 to 179"}
{"compound": "Nc1nc(N)c(CCCNc2ccc(C(=O)N[C@@H](CCC(=O)O)C(=O)O)cc2F)c(=O)[nH]1", "melting point": "> 175"}
{"compound": "CC1(Cn2nc(Cc3ccc(Cl)cc3)oc2=O)Cn2cc([N+](=O)[O-])nc2O1", "note": "(stereo not given)", "melting point": "151 to 153"}
{"compound": "CC(C)C[C@H](N)[C@@H](O)CCS(=O)(=O)CCc1ccccc1", "melting point": "153 to 154"}
{"compound": "CSc1ncncc1C(O)c1ccccc1F", "note": "(stereo not given)", "melting point": "176 to 177"}
{"compound": "Cc1nc2c(c(=O)[nH]1)-c1ccc(Cl)cc1C(c1ccccc1)=NC2", "melting point": "245 to 248"}
{"compound": "O=Cc1c(OCCCCCCC(=O)N(Cc2ccccc2)Cc2ccccc2)cc(Cl)cc1[N+](=O)[O-]", "melting point": "76 to 77"}
{"compound": "O=C(O)c1ccc(CNS(=O)(=O)c2ccccc2)cc1", "melting point": "223 to 227"}
{"compound": "Cc1cc2ncccc2c(=O)[nH]1", "melting point": "244 to 245"}
{"compound": "O=C(Nc1nccs1)C(CC1CCCC1)c1ccc(-c2ccncc2)cc1", "note": "(stereo not given)", "melting point": "165 to 167"}
{"compound": "CN1C(=O)[C@H](NC(=O)COc2ccc(Cl)cc2Cl)N=C(c2ccccc2)c2ccccc21", "melting point": 206}
{"compound": "CC(C)CN(C[C@H](O)COc1cccc2[nH]c3ccccc3c12)c1ccc(OC(C)(C)C(N)=O)cc1", "melting point": "84 to 86"}
{"compound": "CCOc1cc2ncc(C#N)c(Nc3ccc4c(c3)C(=O)OC4)c2cc1OCC", "melting point": "280 to 284"}
{"compound": "CCOc1cc2c(cc1S(=O)(=O)NC(=S)NC)C(CNC(=O)c1cc(Cl)ccc1OC)CCO2", "note": "(stereo not given)", "melting point": 202}
{"compound": "CN1C(=O)C2(C(=O)N(Cc3ccccn3)c3ccccc32)c2cc3c(cc21)OCCO3", "note": "(stereo not given)", "melting point": "87 to 89"}
{"compound": "COc1ccc(NC(=O)c2cccnc2)c2c1oc1ccccc12", "melting point": "200 to 203"}
{"compound": "O=C(O)c1cc(NCc2ccccc2)ccc1O", "melting point": 174}
{"compound": "O=C(c1ccc(Br)cc1)c1cc(Br)c(C(=O)c2ccc(Br)cc2)cc1Br", "melting point": "254 to 256"}
{"compound": "O=c1[nH]ncc2c1c(O)nc1cc(Cl)c(Cl)cc12", "melting point": "> 350"}
